Source: ChEMBL document CHEMBL1921670, “Discovery and optimization of indole and 7-azaindoles as Rho kinase (ROCK) inhibitors (part-II)” (Bioorg Med Chem Lett, 2011)
In brackets after ≈: the same amount, converted by molar mass. Activity calls are given as the source filed them. The rule behind the calls is not given here.

Assays:
[1] = Cmax in rat at 2 mg/kg, po; assay type: ADME, organism-based; parameters: dose 2 mg/kg, route oral; conditions: in vivo
[2] = molecular target: CYP2C9 (Homo sapiens, UniProt P11712); experiment: Inhibition of CYP2C9 at 10 uM; assay type: ADME
CYP2C9, sequence (P11712 whole entry): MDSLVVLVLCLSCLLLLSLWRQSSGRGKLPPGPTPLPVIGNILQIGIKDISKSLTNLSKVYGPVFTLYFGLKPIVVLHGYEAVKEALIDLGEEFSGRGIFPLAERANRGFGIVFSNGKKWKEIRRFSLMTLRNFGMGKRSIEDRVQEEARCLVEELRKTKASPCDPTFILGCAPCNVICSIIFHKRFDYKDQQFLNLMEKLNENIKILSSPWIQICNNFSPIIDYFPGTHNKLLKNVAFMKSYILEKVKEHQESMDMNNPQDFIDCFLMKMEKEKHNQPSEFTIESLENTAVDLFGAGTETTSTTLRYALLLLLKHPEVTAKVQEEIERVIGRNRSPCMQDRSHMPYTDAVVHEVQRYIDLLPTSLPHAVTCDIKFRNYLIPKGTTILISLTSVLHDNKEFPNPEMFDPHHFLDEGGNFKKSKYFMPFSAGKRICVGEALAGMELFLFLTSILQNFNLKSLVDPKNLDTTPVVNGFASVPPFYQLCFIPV

[3] = molecular target: CYP3A4 (Homo sapiens, UniProt P08684); experiment: Inhibition of CYP3A4 at 10 uM; assay type: ADME
CYP3A4, sequence (P08684 whole entry): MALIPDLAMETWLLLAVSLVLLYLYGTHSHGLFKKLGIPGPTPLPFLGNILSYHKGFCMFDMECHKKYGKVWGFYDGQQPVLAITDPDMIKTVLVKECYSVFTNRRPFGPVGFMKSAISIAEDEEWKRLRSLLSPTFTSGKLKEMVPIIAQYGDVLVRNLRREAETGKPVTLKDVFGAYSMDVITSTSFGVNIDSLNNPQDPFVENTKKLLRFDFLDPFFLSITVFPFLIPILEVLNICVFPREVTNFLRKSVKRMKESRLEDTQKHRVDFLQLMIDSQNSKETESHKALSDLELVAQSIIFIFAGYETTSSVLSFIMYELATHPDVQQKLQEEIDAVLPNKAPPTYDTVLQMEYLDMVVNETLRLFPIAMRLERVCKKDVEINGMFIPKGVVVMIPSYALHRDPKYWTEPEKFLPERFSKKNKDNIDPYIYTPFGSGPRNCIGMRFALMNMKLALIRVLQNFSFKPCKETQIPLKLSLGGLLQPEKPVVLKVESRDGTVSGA

[4] = AUC in rat at 1 mg/kg, iv; assay type: ADME, organism-based; parameters: dose 1 mg/kg, route intravenous; conditions: plasma
[5] = molecular target: CYP2D6 (Homo sapiens, UniProt P10635); experiment: Inhibition of CYP2D6 at 10 uM; assay type: ADME
CYP2D6, sequence (P10635 whole entry): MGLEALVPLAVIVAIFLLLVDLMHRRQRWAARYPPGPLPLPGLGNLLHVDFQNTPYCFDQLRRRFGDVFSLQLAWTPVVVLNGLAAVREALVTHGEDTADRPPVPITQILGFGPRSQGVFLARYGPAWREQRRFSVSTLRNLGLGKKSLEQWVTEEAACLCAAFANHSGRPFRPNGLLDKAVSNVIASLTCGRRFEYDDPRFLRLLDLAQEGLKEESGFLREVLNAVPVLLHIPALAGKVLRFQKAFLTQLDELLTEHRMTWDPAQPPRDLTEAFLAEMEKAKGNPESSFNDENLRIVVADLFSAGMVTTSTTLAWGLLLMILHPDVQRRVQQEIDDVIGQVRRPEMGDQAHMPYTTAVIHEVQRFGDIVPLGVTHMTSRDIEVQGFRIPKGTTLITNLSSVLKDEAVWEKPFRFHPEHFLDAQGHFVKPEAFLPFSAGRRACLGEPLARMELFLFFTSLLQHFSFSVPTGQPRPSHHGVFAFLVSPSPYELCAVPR

[6] = Volume of distribution at steady state in rat at 1 mg/kg, iv or 2 mg/kg, po; assay type: ADME, organism-based; conditions: in vivo, read-out: Vdss
[7] = Clearance in rat at 1 mg/kg, iv or 2 mg/kg, po; assay type: ADME, organism-based; conditions: in vivo
[8] = Half life in rat at 1 mg/kg, iv or 2 mg/kg, po; assay type: ADME, organism-based; conditions: in vivo
[9] = AUC in rat at 2 mg/kg, po; assay type: ADME, organism-based; parameters: dose 2 mg/kg, route oral; conditions: plasma
[10] = Inhibition of PKA
[11] = molecular target: T1, CYP1A2 (Homo sapiens, UniProt P05177); experiment: Inhibition of CYP1A2 at 10 uM; assay type: ADME
T1 sequence (P05177 whole entry): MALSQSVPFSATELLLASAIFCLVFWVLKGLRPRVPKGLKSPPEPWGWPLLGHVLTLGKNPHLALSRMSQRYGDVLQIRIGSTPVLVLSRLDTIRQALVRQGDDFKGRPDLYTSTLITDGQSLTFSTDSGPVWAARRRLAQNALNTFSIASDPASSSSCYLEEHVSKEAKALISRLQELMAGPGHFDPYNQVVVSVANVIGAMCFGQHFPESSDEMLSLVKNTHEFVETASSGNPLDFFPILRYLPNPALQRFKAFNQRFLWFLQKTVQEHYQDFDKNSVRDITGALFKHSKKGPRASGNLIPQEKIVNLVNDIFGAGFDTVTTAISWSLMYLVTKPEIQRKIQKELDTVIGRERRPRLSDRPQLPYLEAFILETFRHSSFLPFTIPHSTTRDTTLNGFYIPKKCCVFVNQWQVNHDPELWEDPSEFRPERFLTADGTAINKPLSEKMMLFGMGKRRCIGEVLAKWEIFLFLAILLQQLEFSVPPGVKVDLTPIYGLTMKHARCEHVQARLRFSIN

[12] = molecular target: Rho-associated protein kinase 1 (Homo sapiens, UniProt Q13464); experiment: Inhibition of ROCK1
Rho-associated protein kinase 1, sequence (Q13464 whole entry): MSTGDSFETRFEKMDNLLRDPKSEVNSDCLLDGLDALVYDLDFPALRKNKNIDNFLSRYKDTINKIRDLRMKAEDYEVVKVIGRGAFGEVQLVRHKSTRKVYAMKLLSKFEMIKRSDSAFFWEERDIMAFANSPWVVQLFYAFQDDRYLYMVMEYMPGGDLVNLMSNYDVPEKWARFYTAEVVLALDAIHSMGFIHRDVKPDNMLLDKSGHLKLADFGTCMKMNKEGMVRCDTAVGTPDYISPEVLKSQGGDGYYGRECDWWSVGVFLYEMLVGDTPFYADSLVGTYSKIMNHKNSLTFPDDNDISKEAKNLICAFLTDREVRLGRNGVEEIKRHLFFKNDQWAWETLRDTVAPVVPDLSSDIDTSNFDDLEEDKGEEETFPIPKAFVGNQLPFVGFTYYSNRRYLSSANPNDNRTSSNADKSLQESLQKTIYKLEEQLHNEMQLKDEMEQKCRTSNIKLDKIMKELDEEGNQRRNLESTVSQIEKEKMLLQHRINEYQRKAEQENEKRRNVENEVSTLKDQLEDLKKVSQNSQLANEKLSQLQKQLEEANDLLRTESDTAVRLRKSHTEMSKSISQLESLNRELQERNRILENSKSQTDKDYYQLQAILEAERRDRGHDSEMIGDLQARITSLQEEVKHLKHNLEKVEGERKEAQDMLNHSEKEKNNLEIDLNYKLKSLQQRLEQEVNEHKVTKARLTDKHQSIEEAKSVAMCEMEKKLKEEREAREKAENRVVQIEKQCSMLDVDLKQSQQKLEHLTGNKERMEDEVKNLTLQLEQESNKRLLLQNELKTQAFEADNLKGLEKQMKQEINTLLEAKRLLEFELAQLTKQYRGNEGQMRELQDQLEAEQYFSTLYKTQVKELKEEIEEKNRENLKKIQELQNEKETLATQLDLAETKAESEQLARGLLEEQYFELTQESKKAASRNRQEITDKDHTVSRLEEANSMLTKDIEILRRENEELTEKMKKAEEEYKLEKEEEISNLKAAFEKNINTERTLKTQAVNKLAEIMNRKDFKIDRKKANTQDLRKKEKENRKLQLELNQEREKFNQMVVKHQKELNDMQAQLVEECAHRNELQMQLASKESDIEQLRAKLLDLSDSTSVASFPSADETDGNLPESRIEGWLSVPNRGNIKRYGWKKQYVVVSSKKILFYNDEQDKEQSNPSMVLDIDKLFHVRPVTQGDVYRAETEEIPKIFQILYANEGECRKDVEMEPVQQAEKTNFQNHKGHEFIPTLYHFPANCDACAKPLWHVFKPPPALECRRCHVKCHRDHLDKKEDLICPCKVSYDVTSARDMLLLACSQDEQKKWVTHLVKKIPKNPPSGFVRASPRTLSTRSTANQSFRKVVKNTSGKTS

[13] = Inhibition of myosin light chain bisphosphorylation by cell-based assay
[14] = molecular target: Rho-associated protein kinase 2 (Homo sapiens, UniProt O75116); experiment: Inhibition of ROCK2
Rho-associated protein kinase 2, sequence (O75116 whole entry): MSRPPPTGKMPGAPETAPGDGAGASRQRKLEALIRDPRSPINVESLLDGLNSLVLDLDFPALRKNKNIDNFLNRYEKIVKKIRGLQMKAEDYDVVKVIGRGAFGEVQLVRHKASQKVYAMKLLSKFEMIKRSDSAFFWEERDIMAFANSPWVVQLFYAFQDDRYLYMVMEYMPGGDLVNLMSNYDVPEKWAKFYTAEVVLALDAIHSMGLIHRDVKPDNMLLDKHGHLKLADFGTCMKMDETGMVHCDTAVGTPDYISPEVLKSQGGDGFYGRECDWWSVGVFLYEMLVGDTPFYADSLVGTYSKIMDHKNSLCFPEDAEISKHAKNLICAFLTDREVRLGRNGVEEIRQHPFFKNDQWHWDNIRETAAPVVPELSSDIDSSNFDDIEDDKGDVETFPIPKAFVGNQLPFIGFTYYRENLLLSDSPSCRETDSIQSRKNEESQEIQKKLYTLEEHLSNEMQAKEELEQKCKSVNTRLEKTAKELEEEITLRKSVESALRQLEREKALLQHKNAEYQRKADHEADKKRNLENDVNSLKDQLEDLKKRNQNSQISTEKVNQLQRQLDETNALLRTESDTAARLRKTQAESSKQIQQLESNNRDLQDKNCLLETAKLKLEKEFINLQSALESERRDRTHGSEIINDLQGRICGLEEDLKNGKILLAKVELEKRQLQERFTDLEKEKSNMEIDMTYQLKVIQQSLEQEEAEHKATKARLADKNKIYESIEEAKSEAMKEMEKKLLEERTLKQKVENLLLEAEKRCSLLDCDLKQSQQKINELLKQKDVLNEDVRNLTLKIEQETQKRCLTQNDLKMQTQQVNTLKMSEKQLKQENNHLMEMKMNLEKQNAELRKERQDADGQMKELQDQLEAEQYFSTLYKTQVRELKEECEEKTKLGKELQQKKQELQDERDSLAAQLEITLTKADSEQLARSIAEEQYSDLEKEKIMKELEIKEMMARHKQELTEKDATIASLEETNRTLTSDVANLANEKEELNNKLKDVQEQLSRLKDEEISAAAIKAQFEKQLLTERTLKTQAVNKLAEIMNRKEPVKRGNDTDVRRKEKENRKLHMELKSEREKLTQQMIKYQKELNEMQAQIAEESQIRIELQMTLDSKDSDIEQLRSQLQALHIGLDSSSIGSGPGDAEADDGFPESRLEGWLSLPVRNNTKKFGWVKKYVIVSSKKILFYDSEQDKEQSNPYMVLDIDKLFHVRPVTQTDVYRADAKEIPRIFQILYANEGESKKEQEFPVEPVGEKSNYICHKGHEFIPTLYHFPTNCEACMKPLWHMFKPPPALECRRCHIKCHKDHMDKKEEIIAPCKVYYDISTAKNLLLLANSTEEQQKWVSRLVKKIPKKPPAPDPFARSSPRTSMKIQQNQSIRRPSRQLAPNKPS

[15] = Oral bioavailability in rat at 2 mg/kg; assay type: ADME, organism-based; conditions: in vivo
[16] = Half life in human liver microsomes; assay type: ADME, Microsome
[17] = Aqueous solubility of compound at pH 5.5; assay type: physicochemical; conditions: buffer
[18] = Aqueous solubility of compound at pH 7.4; assay type: physicochemical; conditions: buffer
[19] = molecular target: Mitogen-activated protein kinase 10 (Homo sapiens) (UniProt P53779); experiment: Inhibition of JNK3 at 5 uM
Mitogen-activated protein kinase 10 (Homo sapiens), sequence (P53779 whole entry): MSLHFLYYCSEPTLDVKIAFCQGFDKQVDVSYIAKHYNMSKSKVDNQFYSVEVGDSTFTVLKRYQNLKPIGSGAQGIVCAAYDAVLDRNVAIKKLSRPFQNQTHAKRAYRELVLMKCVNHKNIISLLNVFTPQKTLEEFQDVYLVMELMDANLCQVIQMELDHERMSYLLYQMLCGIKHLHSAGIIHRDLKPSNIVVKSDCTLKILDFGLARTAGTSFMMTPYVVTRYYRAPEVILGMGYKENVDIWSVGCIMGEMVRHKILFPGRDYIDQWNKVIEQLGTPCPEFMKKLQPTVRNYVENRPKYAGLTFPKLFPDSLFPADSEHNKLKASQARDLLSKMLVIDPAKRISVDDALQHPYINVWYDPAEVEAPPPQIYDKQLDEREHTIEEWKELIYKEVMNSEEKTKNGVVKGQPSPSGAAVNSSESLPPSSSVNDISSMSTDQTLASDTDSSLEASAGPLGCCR

[20] = molecular target: Serine/threonine-protein kinase MRCK alpha (Homo sapiens) (UniProt Q5VT25); experiment: Inhibition of MRCKalpha at 5 uM
[21] = molecular target: RAC-alpha serine/threonine-protein kinase (Homo sapiens) (UniProt P31749); experiment: Inhibition of AKT at 5 uM
[22] = Inhibition of p38 at 5 uM

Structure (SMILES)	inhibition at 10 µM [2]	inhibition at 10 µM [3]	AUC [4]	inhibition at 10 µM [5]	Vd [6]	clearance [7]	half-life [8]	AUC [9]	IC50 [10]	inhibition at 10 µM [11]	IC50 [12]	IC50 [14]	bioavailability [15]	half-life [16]	solubility [17]	solubility [18]	other results
COc1cccc(CNC(=O)c2cc3ccc(-c4cn[nH]c4)nc3n2C)c1	76%	40%	11.5 µM·h	48%	0.5 L/kg	4 mL/min/kg	108 min	7.9 µM·h	150 nM	1%	2 nM	< 1 nM	35%	68 min	–	–	Cmax [1]: 1190 nM; IC50 [13]: 25 nM
COc1cccc(CNC(=O)c2cn(CCN(C)C)c3cc(-c4cn[nH]c4)ccc23)c1	91%	70%	1 µM·h	53%	3.2 L/kg	42 mL/min/kg	72 min	0.02 µM·h	7000 nM	-6%	5 nM	< 1 nM	1%	20 min	≥ 100 µM	77 µM (≈ 32100 ng/mL)	IC50 [13]: 23 nM
COc1cccc(CN(C(=O)c2cc3ccc(-c4cn[nH]c4)nc3[nH]2)C2CC2)c1	52%	40%	2.2 µM·h	30%	1.2 L/kg	21 mL/min/kg	54 min	1 µM·h	1700 nM	16%	33 nM	8 nM	22%	27 min	–	–	Cmax [1]: 255 nM
COc1cccc(CNC(=O)c2cc3ccc(-c4cn[nH]c4)cc3[nH]2)c1	–	–	–	–	–	–	–	–	6700 nM	–	–	–	–	–	≤ 0.01 µM	≤ 0.01 µM	–
COc1cccc(CNC(=O)c2cc3ccc(-c4cn[nH]c4)nc3n2CCN(C)C)c1	46%	65%	–	55%	–	–	–	–	3670 nM	26%	243 nM	43 nM	–	17 min	–	–	inhibition [19]: inactive; inhibition [20]: inactive; inhibition [21]: inactive; inhibition [22]: inactive
COc1cccc(CNC(=O)c2c[nH]c3cc(-c4cn[nH]c4)ccc23)c1	–	–	–	–	–	–	–	–	510 nM	–	–	–	–	–	≤ 0.01 µM	≤ 0.01 µM	–
COc1cccc(CNC(=O)c2cc3ccc(-c4cn[nH]c4)nc3n2CCCO)c1	–	–	–	–	–	–	–	–	5800 nM	–	88 nM	24 nM	–	–	–	–	inhibition [19]: inactive; inhibition [20]: inactive; inhibition [21]: inactive; inhibition [22]: inactive
